Patent US20120020940A1, “ANTIMICROBIAL PEPTIDES” (Helmholtz Zentrum München Deutsches Forschungszentrum Für …, priority 2008, published 2012)
Like-named read-outs stand apart in the source and are kept apart here. No end group written: not given here.

Columns and labels:
Yersinia enterocolitica = format: cell-based
Experimental: (§1) In-vitro inhibition assays were performed in sterile ELISA-plates (Greiner bio-one, Frickenhausen or Nunc, Wiesbaden). Antimicrobial peptides were dissolved in 0.01% acetic acid containing 0.2% BSA and stored at −20° C. […] After incubation for one day at 27° C. growth inhibition of the bacteria was analyzed by a ELISA microplate reader.

Pseudomonas aeruginosa = format: cell-based
Experimental: as §1

Escherichia coli (DH5α) = format: cell-based
Experimental: as §1

[1] = test system: Staphylococcus epidermidis; format: cell-based
Experimental: as §1

Staphylococcus aureus = format: cell-based
Experimental: as §1

[2] = test system: Pseudomonas syringae pv. syringae; assay: MIC and lethal concentration (Example 3); format: cell-based; settings: Table 2; for MIC (>90% inhibition): 1-2 days at 25° C.; for LC, lethal concentration (100% inhibition): at least 4 days of incubation
Experimental: (§2) In-vitro inhibition assays were performed in sterile flat-bottom 96-well plates (Greiner bio-one, Frickenhausen). Antimicrobial peptides were dissolved in 0.01% acetic acid containing 0.2% BSA (500 μg/ml), filter sterilized and stored at −20° C. For inhibition assays dilutions of peptides ranging from 5 to 200 μg/ml were prepared and 10 μl (antibacterial assay) or 20 μl (antifungal assay) of each concentration was loaded per well.
(§3) Bacteria colonies from overnight agar plate cultures were resuspended into 5 ml LB-medium or HPG-medium (OD600 nm=0.08-0.1) and diluted into LB-medium/HPG-medium (1:100). 90 μl of this suspension containing about 10^5-10^6 CFU/ml of tested bacteria were added to each well resulting in final peptide concentrations of 0, 0.5, 1, 2, 5, 10, and 20 μg/ml. […] The lowest concentration, in which there is no observable growth (>90% inhibition) is referred to as minimal inhibitory concentration (MIC). […] For each peptide concentration two identical inhibition assays were performed.

[3] = test system: Clavibacter michiganensis; assay: MIC and lethal concentration (Example 3); format: cell-based; settings: Table 2; for MIC (>90% inhibition): 1-2 days at 25° C.; for LC, lethal concentration (100% inhibition): at least 4 days of incubation
Experimental: as §2, §3

Pseudomonas corrugata [4] = assay: MIC and lethal concentration (Example 3); format: cell-based; settings: Table 2; for MIC (>90% inhibition): 1-2 days at 25° C.; for LC, lethal concentration (100% inhibition): at least 4 days of incubation
Experimental: as §2, §3

Xanthomonas vesicatoria [5] = assay: MIC and lethal concentration (Example 3); format: cell-based; settings: Table 2; for MIC (>90% inhibition): 1-2 days at 25° C.; for LC, lethal concentration (100% inhibition): at least 4 days of incubation
Experimental: as §2, §3

[6] = test system: Pectobacterium carotovorum; assay: MIC and lethal concentration (Example 3); format: cell-based; settings: Table 2; for MIC (>90% inhibition): 1-2 days at 25° C.; for LC, lethal concentration (100% inhibition): at least 4 days of incubation
Experimental: as §2, §3

[7] = test system: Pseudomonas syringae pv. tomato; assay: MIC and lethal concentration (Example 3); format: cell-based; settings: Table 2; for MIC (>90% inhibition): 1-2 days at 25° C.; for LC, lethal concentration (100% inhibition): at least 4 days of incubation
Experimental: as §2, §3

Xanthomonas vesicatoria [8] = test system: Xanthomonas vesicatoria
[9] = test system: Pseudomonas syringae pv. syringae
human erythrocytes = assay: Hemolytic activity, hemoglobin release; format: cell-based; settings: 45 min at 37° C., Table 3
Experimental: The hemolytic activity of the peptides was evaluated by determining hemoglobin release of suspensions of fresh human erythrocytes at 405 nm. Human red blood cells were centrifuged and washed three times with Tris-buffer (10 mM Tris, 150 mM NaCl, pH 7.4). Eighty μl of human red blood cells (1.5×10^9/ml) were added to 20 μl of the peptides solution (peptides dissolved in 0.2% BSA, 0.01% HAc) in 96-well plates (Greiner bio-one, Frickenhausen) and incubated for 45 min at 37° C. The endconcentration of the peptides were 0, 20, 50, 100 and 200 μg/ml. After centrifugation (1500×g, 5 min, 20° C.) 30 μl aliquots of the supernatant were transferred to 96-well plates containing 100 μl water. Hemolysis was measured by absorbance at 405 nm with a microplate reader. 100% hemolysis were determined in 2% SDS. The hemolysis percentage was calculated using the following equation: % hemolysis=[(Abs405 nm in the peptide solution−Abs405 nm in peptides solvent)/(Abs405 nm in 2% SDS−Abs405 nm in peptide solvent)]×100.
Further hemolytic activities of the various peptides of the present invention may be taken from the table depicted in example 3, last row indicated as “Hemolytic activity”. In connection therewith, however, the concentrations are stated where at least 50% hemolysis was observed.

[10] = test system: Pectobacterium carotovorum sub. carotovorum
[11] = test system: Pseudomonas syringae pv. tomato
Pseudomonas corrugata [12] = test system: Pseudomonas corrugata
Botrytis cinerea = assay: MIC, antifungal in-vitro inhibition assay (Example 2); format: cell-based; settings: Table 1
Experimental: as §2
(§4) Spores of fungi were collected by water washes of sporulating cultures grown on 2% malt extract agar and spore concentration was determined by microscopy. The concentration of the spores was adjusted to 1.5-2×10^3 spores/ml in 2% malt extract medium and 80 μl of fungal spores were added per well. The final peptide concentrations used in the fungal inhibition assays were […]. After overnight incubation at room temperature the plate were put on a rotary shaker (300 rpm) for further two days to ensure consistantly growth. Antifungal effects of the peptides were determined by a microplate reader (Alternaria, Fusarium) at OD590 nm or by visual screening of the plates (Botrytis, Cladosporium).
(§5) The lowest peptide concentration leading to complete inhibition of bacterial growth or spore germination/mycelial growth (minimal inhibition concentration, MIC) was determined for each organism-peptide combination. For each peptide concentration two identical inhibition assays were performed.

Cladosporium herbarum = assay: as above; format: cell-based; settings: Table 1
Experimental: as §2, §4, §5

Alternaria alternata = assay: as above; format: cell-based; settings: Table 1
Experimental: as §2, §4, §5

[13] = test system: Clavibacter michiganensis sub. michiganensis; settings: overnight 25° C., Table 1
[14] = test system: human immundeficiency virus (HIV); format: cell-based; settings: HeLa cells LC5-RIC pre-incubated 30 min with peptide, read after 72 h; read-out: IC50, concentration where the infection is decreased by 50% (compared to non-treated controls)
Experimental: To measure the activity of the designed oligopeptides against human immundeficiency virus (HIV) a fluorescence-based reporter system was used. HeLa cells (LC5-RIC) harbour a reporter gene, which regulates in dependency of HIV Rev and Tat proteins the synthesis of a red fluorescing protein. In this way the infection of the HeLa cells (LC5-RIC) is indicated and the infection rate can be quantified using a fluorescence microplate reader.
(§6) Antimicrobial oligopeptides were dissolved in 0.01% acetic acid containing 0.2% BSA (500 μg/ml), filter sterilized and stored at −20° C. […] (in 5% CO2). Afterwards, virus particles were added to the pre-treated HeLa cells and the infection was quantified by measuring red fluorescence with a fluorescence microplate reader after 72 h incubation. The viability of the HeLa cells was determined by measuring the activity of the mitochondrial dehydrogenase according to Lindl and Bauer (1994) and Mosmann (1983).

HeLa cells = assay: Cell viability, mitochondrial dehydrogenase activity; format: cell-based; settings: at the IC50 concentration (6.8 μM)
Experimental: as §6

Klebsiella pneumoniae = format: cell-based
Experimental: as §1

Enterobacter cloacae = format: cell-based
Experimental: as §1

Klebsiiella oxytoca = format: cell-based
Experimental: as §1

Substance	MIC (>90% inhibition) [2] [µg/mL]	LC, lethal concentration (100% inhibition) [2] [µg/mL]	MIC (>90% inhibition) [3]	LC, lethal concentration (100% inhibition) [3]	MIC (>90% inhibition) (Pseudomonas corrugata [4])	LC, lethal concentration (100% inhibition) (Pseudomonas corrugata [4])	MIC (>90% inhibition) (Xanthomonas vesicatoria [5])	LC, lethal concentration (100% inhibition) (Xanthomonas vesicatoria [5])	MIC (>90% inhibition) [6]	LC, lethal concentration (100% inhibition) [6]	MIC (>90% inhibition) [7]	LC, lethal concentration (100% inhibition) [7]	MIC (>90% inhibition) (Yersinia enterocolitica) [µg/mL]	MIC (>90% inhibition) (Pseudomonas aeruginosa) [µg/mL]	MIC (>90% inhibition) (Escherichia coli (DH5α); DH5α) [µg/mL]	MIC (>90% inhibition) [1] [µg/mL]	MIC (>90% inhibition) (Staphylococcus aureus) [µg/mL]	Minimal inhibition concentration (MIC) for complete inhibition of spore germination/mycelial growth (Botrytis cinerea) [µg/mL]	Minimal inhibition concentration (MIC) for complete inhibition of spore germination/mycelial growth (Cladosporium herbarum) [µg/mL]	Minimal inhibition concentration (MIC) for complete inhibition of spore germination/mycelial growth (Alternaria alternata) [µg/mL]	also measured
LRKLKKILKKLF-NH2 [SP10-10]	0.25	0.5	0.25 µg/mL	0.5 µg/mL	0.25/0.25 μg/ml	0.25/0.25 μg/ml	0.1 µg/mL	0.5 µg/mL	2.5 µg/mL	5.0 µg/mL	0.5 µg/mL	1.0 µg/mL									MIC (>90% inhibition) (Yersinia enterocolitica; Yersinia enterocolitica, one day at 27° C., Table 4): >50 µg/mL; MIC (>90% inhibition) (Pseudomonas aeruginosa; Pseudomonas aeruginosa, one day at 27° C., Table 4): 2 µg/mL; MIC (>90% inhibition) (Escherichia coli (DH5α); Escherichia coli (DH5α), one day at 27° C., Table 4): 1 µg/mL; MIC (>90% inhibition) ([1]; Staphylococcus epidermidis, one day at 27° C., Table 4): 1 µg/mL; MIC (>90% inhibition) (Staphylococcus aureus; Staphylococcus aureus, one day at 27° C., Table 4): 10 µg/mL
LRFLKKALKKLF-NH2 [SP10-2]	0.1	0.25	0.25/0.25 μg/ml	0.25/0.25 μg/ml	0.5/0.5 μg/ml	0.5/0.5 μg/ml	0.25/0.25 μg/ml	0.25/0.25 μg/ml	1.0 µg/mL	2.5 µg/mL	0.5/0.5 μg/ml	0.5/0.5 μg/ml	10	1	1	1	1				
LRFLKKILKHLF (also: D-amino acids incorporated, places not given here) [SP10-D]																		10	5	5	Minimal inhibition concentration (MIC) for complete inhibition of bacterial growth (Xanthomonas vesicatoria [8]; Xanthomonas vesicatoria, overnight 25° C., Table 1): 2 µg/mL; Minimal inhibition concentration (MIC) for complete inhibition of bacterial growth ([9]; Pseudomonas syringae pv. syringae, overnight 25° C., Table 1): 2.5 µg/mL; Hemolytic activity, concentration where at least 25% hemolysis was observed (human erythrocytes): >200 µg/mL; Minimal inhibition concentration (MIC) for complete inhibition of bacterial growth ([10]; Pectobacterium carotovorum sub. carotovorum, overnight 25° C., Table 1): >40 µg/mL; Minimal inhibition concentration (MIC) for complete inhibition of bacterial growth ([11]; Pseudomonas syringae pv. tomato, overnight 25° C., Table 1): 0.5 µg/mL; Minimal inhibition concentration (MIC) for complete inhibition of bacterial growth (Pseudomonas corrugata [12]; Pseudomonas corrugata, overnight 25° C., Table 1): 2.5 µg/mL; Minimal inhibition concentration (MIC) for complete inhibition of bacterial growth [13]: 5 µg/mL
LRKAKKIAKKLF-NH2 [SP10-11]	0.1	0.25	5.0/5.0 μg/ml	5.0/5.0 μg/ml	0.5/0.5 μg/ml	0.5/0.5 μg/ml	0.5 µg/mL	1.0 µg/mL	>10/>10 μg/ml	>10/>10 μg/ml	0.5/0.5 μg/ml	0.5/0.5 μg/ml									IC50 [14]: 6.8 µM; negative/toxic effect on test cells (HeLa cells) (HeLa cells): No negative/toxic effect
LRFLKKILKHLF-NH2 [SP10, LRFLKKILKHLF -NH2]	0.5	1.0	0.5/0.5 μg/ml	0.5/0.5 μg/ml	0.5 µg/mL	1.0 µg/mL	0.5/0.5 μg/ml	0.5/0.5 μg/ml	1.0 µg/mL	2.5 µg/mL	2.5/2.5 μg/ml	2.5/2.5 μg/ml	10	10	10	2	5	>100	10	>100	Minimal inhibition concentration (MIC) for complete inhibition of bacterial growth (Xanthomonas vesicatoria [8]): 5 µg/mL; MIC (>90% inhibition) (Klebsiella pneumoniae): 20 µg/mL; MIC (>90% inhibition) (Enterobacter cloacae): 20 µg/mL; MIC (>90% inhibition) (Klebsiiella oxytoca): 20 µg/mL; Minimal inhibition concentration (MIC) for complete inhibition of bacterial growth [9]: 10 µg/mL; Minimal inhibition concentration (MIC) for complete inhibition of bacterial growth [10]: 20 µg/mL; Minimal inhibition concentration (MIC) for complete inhibition of bacterial growth [11]: 10 µg/mL; Minimal inhibition concentration (MIC) for complete inhibition of bacterial growth (Pseudomonas corrugata [12]): 20 µg/mL; Minimal inhibition concentration (MIC) for complete inhibition of bacterial growth [13]: 10 µg/mL
